Laboratory results taken from patent EP0076973A1, “A new dioxolanic compound and its method of preparation; a new dioxolanic amine with pharmacological activity, its method of preparation, and the pharmaceutical compositions containing them” (Investigacion Tecnica y Aplicada, S.A., priority 1981, dated 1983).
Where a name gives a salt, the structure may show the parent alone. Read-outs that look alike come from different tables or passages of the source.

What was measured:
[1] = Acute toxicity (LD50, method of Litchfield and Wilcoxon) in the rat; details: in vivo
Description: (§1) The respective lethal dose 50 was calculated according to the method of Litchfield and Wilcoxon (Jl. Pharmacol. Exptl. 96 99, 1949 ).

[2] = Acute toxicity (LD50, method of Litchfield and Wilcoxon) in the mouse; details: in vivo
Description: as §1

conscious dog = assay: Anti-angina activity: amplitude increase protection of the T wave by vasopression in the conscious dog; type: in vivo
Text: The antiangina activity was also compared with that of the nitroglycerine by means of the amplitude increase protection test of the T wave for vasopression in the conscious dog. ( A.Lindner, M.London, G.Werner, Scheiz. Med.
Wsohr. 83-,- 360, 1953; J.Papp, L. Szekeres. Arch. Int. Pharmacodyn. 160, 1, 1966 ).

hind quarters of rats = assay: Vasodilatory activity: perfusion of the hindquarters of rats with a hyperpotasemic solution; type: in vivo, rat; design: ED 25: unit not given here
Text: In the table 3 is shown the results of the vasodilatory activity of the ITA 362 in the perfusion test of the hindquarters of rats with a hyperpotasemic solution. (F.N.Fastier, F.M. Smirk. Jl. Pharmacolog. Exp. Therapy. 89. 256, 1947).

male NMRI mouse = assay: Anti-arrythmic activity: fibrillation by chloroform in the mouse; type: in vivo; details: for ED50: Mus musculus
Text: Tables 5 and 6 show the anti-arrithmic activity of the ITA 362 in the male NMRI mouse by oral and intraperitoneal route using the fibrillation test by chloroform in the mouse. […] The activity of the two forms of maleate described in the example 2 were studied and which in the table are subtitled as isomer A corresponding to the first fraction obtained in the aforementioned example, and isomer B corresponding to the second fraction.

[3] = ip, intraperitoneal administration, read-out: LD50 and confidence limits
[4] = oral administration, read-out: LD50
[5] = ip, no unit given for ED50 (doses in mg/kg), read-out: ED50 and confidence limits p < 0,05
[6] = po, no unit given for ED50 (doses in mg/kg), (*) = calculation of limits is not possible, read-out: ED50 and confidence limits p<0,05

Structure (SMILES)	% Prot. (conscious dog; dose i.v. 1 mg/kg, 1 mg/kg)	% drop in pressure (hind quarters of rats; concentration 10^-5 g/ml)	% drop in pressure (hind quarters of rats; concentration 10^-6 g/ml)	% drop in pressure (hind quarters of rats; concentration 10^-7 g/ml)	% drop in pressure (hind quarters of rats; concentration 10^-8 g/ml)	ED50 (male NMRI mouse; [5])	ED50 (male NMRI mouse; [6])	% protection versus fibrillation (male NMRI mouse; i.p. 25 mg/kg)	% protection versus fibrillation (male NMRI mouse; i.p. 12,5 mg/kg)	% protection versus fibrillation (male NMRI mouse; p.o. 12,5 mg/kg)	% protection versus fibrillation (male NMRI mouse; i.p. 50 mg/kg, 50 mg/kg)	% protection versus fibrillation (male NMRI mouse; i.p. 100 mg/kg, 100 mg/kg)	% protection versus fibrillation (male NMRI mouse; p.o. 25 mg/kg, 25 mg/kg)	% protection versus fibrillation (male NMRI mouse; p.o. 50 mg/kg, 50 mg/kg)	% protection versus fibrillation (male NMRI mouse; p.o. 100 mg/kg, 100 mg/kg)	also measured
CCCCNCC1COC(c2ccc(Cl)cc2)(c2cc3ccccc3o2)O1 (stereo not shown) [ITA 362 maleate, 2-(2'-benzofuranil) -4-butylaminomethyl--2-p-chlorophenyl-1,3-dioxolane, maleate]	46,8%															LD50 [1, 3]: 105 mg/kg; LD50 [1, 4]: > 4000 mg/kg; LD50 [2, 3]: 106 mg/kg; LD50 [2, 4]: > 4000 mg/kg; Control quot. treatment (conscious dog; dose i.v. 1 mg/kg): 1,893
CCCCNCC1COC(c2ccc(Cl)cc2)(c2cc3ccccc3o2)O1 (stereo not shown) [ITA 362, 2-(2' -benzofuranil)-4-n-butylaminomethyl-2-p-chlorophenyl-1,3-dioxolane]	~50%															
CCCCNCC1COC(c2ccc(Cl)cc2)(c2cc3ccccc3o2)O1 (stereo not shown) [ITA 362 citrate]		33,6%	16,3%	12,7%	12,5%	41.4 mg/kg	43.2 mg/kg	40%	25%	31,6%						ED 25 (hind quarters of rats; from concentrations 10^-5 to 10^-8 g/ml, correlation r printed in the same cell): 2,61; % protection versus fibrillation (male NMRI mouse; i.p. 50 mg/kg): 35%; % protection versus fibrillation (male NMRI mouse; i.p. 100 mg/kg): 84,2%; % protection versus fibrillation (male NMRI mouse; p.o. 25 mg/kg): 45%; % protection versus fibrillation (male NMRI mouse; p.o. 50 mg/kg): 55%; % protection versus fibrillation (male NMRI mouse; p.o. 100 mg/kg): 55%; % protection versus fibrillation (male NMRI mouse; p.o. 3,125 mg/kg): 10%; % protection versus fibrillation (male NMRI mouse; p.o. 6,25 mg/kg): 42,1%
CCCCNCC1COC(c2ccc(Cl)cc2)(c2cc3ccccc3o2)O1 (single isomer, unassigned) [ITA 362 maleate (isomer B)]							27.6 mg/kg	35%	40%	35%	70%	95%	55%	45%	85%	ED50 and confidence limits p < 0,05 (male NMRI mouse; route i.p., no unit given for ED50 (doses in mg/kg)): 24,5 (16,11 37,20)
CCCCNCC1COC(c2ccc(Cl)cc2)(c2cc3ccccc3o2)O1 (single isomer, unassigned) [ITA 362 maleate (isomer A)]						35.3 mg/kg		35%	35%	25%	60%	70%	35%	70%	70%	
O=[N+]([O-])OCC(CO[N+](=O)[O-])O[N+](=O)[O-] [Nitro-glycerine, nitroglycerine, reference compound]		25,4%	24,7%	17,5%	10,9%											% Prot. (conscious dog; dose i.v. 0,4 mg/kg): 28,9%; Control quot. treatment (conscious dog; dose i.v. 0,4 mg/kg): 1,520
